Key:
Format in all cases: functional
[1] = test system: Pseudoperonospora cubensis; assay: Fungicidal activity against Pseudoperonospora cubensis assessed as cucumber downy mildew disease control at 31.3 ppm foliar application 24 hr after inoculation by preventive manner
Botrytis cinerea [2] = assay: Fungicidal activity against Botryotinia fuckeliana assessed as cucumber gray mold disease control at 2 ppm foliar application 24 hr after inoculation by curative manner
Botrytis cinerea [3] = assay: Fungicidal activity against Botryotinia fuckeliana assessed as cucumber gray mold disease control at 2 ppm foliar application 24 hr before inoculation by preventive manner
Podosphaera fuliginea [4] = assay: Fungicidal activity against Podosphaera fuligineas assessed as cucumber […] mildew disease control at 31.3 ppm foliar application 24 hr after inoculation by curative manner
[5] = test system: Pseudoperonospora cubensis; assay: Fungicidal activity against Pseudoperonospora cubensis assessed as cucumber downy mildew disease control at 7.8 ppm foliar application 24 hr after inoculation by curative manner
Podosphaera fuliginea [6] = assay: Fungicidal activity against Podosphaera fuligineas assessed as cucumber […] mildew disease control at 31.3 ppm foliar application 24 hr before inoculation by preventive manner
[7] = test system: Blumeria graminis f. sp. tritici; assay: Fungicidal activity against Blumeria graminis f. sp. tritici assessed as wheat powdery mildew disease control at 2 ppm foliar application for 24 hr after inoculation by curative manner
[8] = test system: Blumeria graminis f. sp. tritici; assay: Fungicidal activity against Blumeria graminis f. sp. tritici assessed as wheat powdery mildew disease control at 7.8 ppm foliar application for 24 hr before inoculation by preventive manner
Pyricularia oryzae [9] = assay: Fungicidal activity against Magnaporthe oryzae assessed as rice blast disease control at 31.3 ppm foliar application for 24 hr after inoculation by curative manner
Pyricularia oryzae [10] = assay: Fungicidal activity against Magnaporthe oryzae assessed as rice blast disease control at 125 ppm foliar application for 24 hr before inoculation by preventive manner
Botrytis cinerea [11] = assay: Fungicidal activity against Botryotinia fuckeliana assessed as cucumber gray mold disease control at 7.8 ppm foliar application 24 hr before inoculation by preventive manner
[12] = test system: Pseudoperonospora cubensis; assay: Fungicidal activity against Pseudoperonospora cubensis assessed as cucumber downy mildew disease control at 31.3 ppm foliar application 24 hr after inoculation by curative manner
Podosphaera fuliginea [13] = assay: Fungicidal activity against Podosphaera fuligineas assessed as cucumber […] mildew disease control at 2 ppm foliar application 24 hr after inoculation by curative manner
Podosphaera fuliginea [14] = assay: Fungicidal activity against Podosphaera fuligineas assessed as cucumber […] mildew disease control at 7.8 ppm foliar application 24 hr before inoculation by preventive manner
[15] = test system: Blumeria graminis f. sp. tritici; assay: Fungicidal activity against Blumeria graminis f. sp. tritici assessed as wheat powdery mildew disease control at 2 ppm foliar application for 24 hr before inoculation by preventive manner
Pyricularia oryzae [16] = assay: Fungicidal activity against Magnaporthe oryzae assessed as rice blast disease control at 2 ppm foliar application for 24 hr after inoculation by curative manner
Pyricularia oryzae [17] = assay: Fungicidal activity against Magnaporthe oryzae assessed as rice blast disease control at 2 ppm foliar application for 24 hr before inoculation by preventive manner
[18] = test system: Pseudoperonospora cubensis; assay: Fungicidal activity against Pseudoperonospora cubensis assessed as cucumber downy mildew disease control at 7.8 ppm foliar application 24 hr after inoculation by preventive manner
[19] = test system: Pseudoperonospora cubensis; assay: Fungicidal activity against Pseudoperonospora cubensis assessed as cucumber downy mildew disease control at 2 ppm foliar application 24 hr after inoculation by curative manner
Podosphaera fuliginea [20] = assay: Fungicidal activity against Podosphaera fuligineas assessed as cucumber […] mildew disease control at 2 ppm foliar application 24 hr before inoculation by preventive manner
Pyricularia oryzae [21] = assay: Fungicidal activity against Magnaporthe oryzae assessed as rice blast disease control at 7.8 ppm foliar application for 24 hr after inoculation by curative manner
Pyricularia oryzae [22] = assay: Fungicidal activity against Magnaporthe oryzae assessed as rice blast disease control at 7.8 ppm foliar application for 24 hr before inoculation by preventive manner
Botrytis cinerea [23] = assay: Fungicidal activity against Botryotinia fuckeliana assessed as cucumber gray mold disease control at 31.3 ppm foliar application 24 hr before inoculation by preventive manner
[24] = test system: Pseudoperonospora cubensis; assay: Fungicidal activity against Pseudoperonospora cubensis assessed as cucumber downy mildew disease control at 2 ppm foliar application 24 hr before inoculation by preventive manner
Botrytis cinerea [25] = assay: Fungicidal activity against Botryotinia fuckeliana assessed as cucumber gray mold disease control at 31.3 ppm foliar application 24 hr after inoculation by curative manner
[26] = test system: Blumeria graminis f. sp. tritici; assay: Fungicidal activity against Blumeria graminis f. sp. tritici assessed as wheat powdery mildew disease control at 7.8 ppm foliar application for 24 hr after inoculation by curative manner
Botrytis cinerea [27] = assay: Fungicidal activity against Botryotinia fuckeliana assessed as cucumber gray mold disease control at 7.8 ppm foliar application 24 hr after inoculation by curative manner
[28] = test system: Pseudoperonospora cubensis; assay: Fungicidal activity against Pseudoperonospora cubensis assessed as cucumber downy mildew disease control at 125 ppm foliar application 24 hr after inoculation by preventive manner
Botrytis cinerea [29] = assay: Fungicidal activity against Botryotinia fuckeliana assessed as cucumber gray mold disease control at 125 ppm foliar application 24 hr before inoculation by preventive manner
Podosphaera fuliginea [30] = assay: Fungicidal activity against Podosphaera fuligineas assessed as cucumber […] mildew disease control at 7.8 ppm foliar application 24 hr after inoculation by curative manner
Botrytis cinerea [31] = assay: Fungicidal activity against Botryotinia fuckeliana assessed as cucumber gray mold disease control at 125 ppm foliar application 24 hr after inoculation by curative manner
[32] = test system: Blumeria graminis f. sp. tritici; assay: Fungicidal activity against Blumeria graminis f. sp. tritici assessed as wheat powdery mildew disease control at 125 ppm foliar application for 24 hr after inoculation by curative manner
[33] = test system: Blumeria graminis f. sp. tritici; assay: Fungicidal activity against Blumeria graminis f. sp. tritici assessed as wheat powdery mildew disease control at 31.3 ppm foliar application for 24 hr before inoculation by preventive manner
Pyricularia oryzae [34] = assay: Fungicidal activity against Magnaporthe oryzae assessed as rice blast disease control at 125 ppm foliar application for 24 hr after inoculation by curative manner
Pyricularia oryzae [35] = assay: Fungicidal activity against Magnaporthe oryzae assessed as rice blast disease control at 31.3 ppm foliar application for 24 hr before inoculation by preventive manner
[36] = test system: Blumeria graminis f. sp. tritici; assay: Fungicidal activity against Blumeria graminis f. sp. tritici assessed as wheat powdery mildew disease control at 31.3 ppm foliar application for 24 hr after inoculation by curative manner

Compound | Activity (Botrytis cinerea [2]) [%] | Activity [7] [%] | Activity [8] [%] | Activity (Pyricularia oryzae [9]) [%] | Activity (Pyricularia oryzae [10]) [%] | Activity (Botrytis cinerea [11]) [%] | Activity [12] [%] | Activity (Podosphaera fuliginea [13]) [%] | Activity (Podosphaera fuliginea [14]) [%] | Activity [15] [%] | Activity [19] [%] | Activity (Podosphaera fuliginea [20]) [%] | Activity (Pyricularia oryzae [21]) [%] | Activity (Pyricularia oryzae [22]) [%] | Activity (Botrytis cinerea [25]) [%] | Activity [28] [%] | also measured
CNC(=O)/C(=N/OC)c1ccccc1COc1ccc(Cl)cn1 | 90 | 90 | 90 | 90 | 90 |  |  |  |  |  |  |  |  |  |  |  | Activity [1]: 90%; Activity (Botrytis cinerea [3]): 90%; Activity (Podosphaera fuliginea [4]): 90%; Activity [5]: 90%; Activity (Podosphaera fuliginea [6]): 90%
CNC(=O)/C(=N/OC)c1ccccc1COc1ncccc1C(F)(F)F | 90 | 90 |  |  |  | 90 | 90 | 90 | 90 | 90 |  |  |  |  |  |  | Activity [1]: 90%; Activity (Pyricularia oryzae [16]): 90%; Activity (Pyricularia oryzae [17]): 90%
CNC(=O)/C(=N/OC)c1ccccc1COc1ncc(C(F)(F)F)cc1Cl | 90 | 90 |  |  |  |  |  | 90 |  | 90 | 90 | 90 | 90 | 90 |  |  | Activity [18]: 90%; Activity (Botrytis cinerea [3]): 90%
CNC(=O)/C(=N/OC)c1ccccc1COc1ncc(Cl)cc1Cl |  |  | 90 | 90 |  |  |  | 90 |  |  | 90 | 90 |  | 90 | 90 |  | Activity (Botrytis cinerea [23]): 90%; Activity [24]: 90%; Activity [26]: 90%
CNC(=O)/C(=N/OC)c1ccccc1COc1ncc(Cl)cc1C(F)(F)F | 90 | 90 |  |  |  | 90 |  | 90 |  | 90 | 90 | 90 | 90 | 90 |  |  | Activity [18]: 90%
CNC(=O)/C(=N/OC)c1ccccc1COc1nc(Cl)ccc1C(F)(F)F |  | 90 |  |  |  | 90 |  | 90 |  | 90 | 90 | 90 | 90 | 90 |  |  | Activity [24]: 90%; Activity (Botrytis cinerea [27]): 90%
CNC(=O)/C(=N/OC)c1ccccc1COc1ccc(C(F)(F)F)c(OC(C)C)n1 |  |  |  |  | 90 |  | 90 |  | 90 |  |  |  |  |  |  | <90 | Activity (Botrytis cinerea [29]): <90%; Activity (Podosphaera fuliginea [30]): 90%; Activity (Botrytis cinerea [31]): <90%; Activity [32]: 90%; Activity [33]: 90%; Activity (Pyricularia oryzae [34]): 90%
CNC(=O)/C(=N/OC)c1ccccc1COc1nc(Cl)c(C(F)(F)F)cc1Cl |  | 90 | 90 | 90 |  | 90 |  | 90 |  |  | 90 | 90 |  |  | 90 | 90 | Activity (Pyricularia oryzae [35]): 90%
CNC(=O)/C(=N/OC)c1ccccc1COc1ccccn1 |  |  | 90 |  | <90 |  | 90 |  | 90 |  |  |  |  |  | 90 | 90 | Activity (Botrytis cinerea [23]): 90%; Activity (Podosphaera fuliginea [4]): 90%; Activity [36]: 90%; Activity (Pyricularia oryzae [34]): <90%

— ChEMBL document CHEMBL3046966, “Structure and Fungicidal Activities of 2-Methoxyimino-N-methyl-2-[2-(substituted pyridyloxymethyl)phenyl]acetamide Derivatives” (1998)
